From patent US20260184690A1, “Substituted Heterocyclic Compounds” (Bristol-Myers Squibb Company, priority 2022, published 2026) come the findings set out here.

The term IC50 denotes the point on the concentration scale where inhibition reaches its midpoint. In general, Papp A→B refers to the apparent permeability from the apical to the basolateral side of a cell layer. A low value points to poor permeation. As a reminder, the efflux ratio is a quotient of directional permeabilities that is used to spot active efflux.

Like-named read-outs stand apart in the source and are kept apart here.

Data set [1] concerns Caco-2 cells. Particulars: human, Caco-2, 2 h, 3 μM, pH 7.4.
For data set [2], the system named is IFNα-induced pSTAT5 in human whole blood (CD3 positive population). Description: IFNα-induced STAT phosphorylation in human whole blood. It is filed as cell-based. As to conditions: 1 h compound incubation, 1000 U/mL IFNα A/D for 15 min, CD3+ gate, read-out: Human Whole blood IFNa pSTAT5 IC50. On the procedure: After an hour long incubation with compound, human whole blood (drawn with ACD-A as anticoagulant) was stimulated with 1000 U/mL recombinant human IFNα A/D (R&D Systems 11200-2) for 15 min. The stimulation was stopped by adding Fix/Lyse buffer (BD 558049). Cells were stained with a CD3 FITC antibody (BD 555916), washed, and permeabilized on ice using Perm III buffer (BD 558050). Cells were then stained with an Alexa-Fluor 647 pSTAT5 (pY694) antibody (BD 612599) for 60 min prior to analysis on the iQue Plus. The amount of pSTAT5 expression was quantitated by median fluorescence intensity after gating on the CD3 positive population.

In data set [3] the test system is Caco-2 cells. Briefly: Bidirectional permeability assay in Caco-2 cells. Particulars: 3 μM, pH 7.4, 0.5% BSA, 2 hours at 37° C.; for Caco-2 AB: apical-to-basolateral Pc.
The nature of a further data set: in vitro. Particulars: human, Caco-2, pH 7.4.

With `[2H]C([2H])([2H])NC(=O)c1nnc(N2CCN(C3CCC3)C2=O)cc1Nc1nccc(-c2cnn(C)n2)c1OC` [Example 7, 6-(3-cyclobutyl-2-oxoimidazolidin-1-yl)-4-{[3-methoxy-4-(2-methyl-2H-1,2,3-triazol-4-yl)pyridin-2-yl]amino}-N-(^2H3)methylpyridazine-3-carboxamide], in the data set with Caco-2 cells [1], the “Caco-2 AB” value is on record as 139 nm/s.

Take `CNC(=O)c1cnc(N2CCN(C(C)C)C2=O)cc1Nc1cccc(-c2cnn(C)n2)c1OC` [Example 3, 4-{[2-methoxy-3-(2-methyl-2H-1,2,3-triazol-4-yl)phenyl]amino}-N-(^2H3)methyl-6-[2-oxo-3-(propan-2-yl)imidazolidin-1-yl]pyridine-3-carboxamide]: the IC50 in data set [2] was 77 nM.

For the compound `[2H]C([2H])([2H])NC(=O)c1cnc(N2CCN(C(F)(F)F)C2=O)cc1Nc1cccc(-c2cnn(C)n2)c1OC` [Example 6, 4-{[2-methoxy-3-(2-methyl-2H-1,2,3-triazol-4-yl)phenyl]amino}-N-(^2H3)methyl-6-[2-oxo-3-(trifluoromethyl)imidazolidin-1-yl]pyridine-3-carboxamide], in the data set on Caco-2 cells [3], the Caco-2 efflux ratio was determined as 0.6 and the “Caco-2 AB” value was 118 nm/s.

In the case of `[2H]C([2H])([2H])NC(=O)c1nnc(N2CCN(C3CC3)C2=O)cc1Nc1nc(C)cc(-c2cnn(C)n2)c1OC` [Example 9, 6-(3-cyclopropyl-2-oxoimidazolidin-1-yl)-4-((3-methoxy-6-methyl-4-(2-methyl-2H-1,2,3-triazol-4-yl)pyridin-2-yl)amino)-N-(methyl-d3)pyridazine-3-carboxamide], the half-inhibitory concentration (IC50) in data set [2] was determined as 141 nM. For the same compound, in “in vitro”, the apical-to-basolateral permeability (Papp A→B) at 2 h, 3 μM amounted to 13.7 ×10⁻⁶ cm/s and the efflux ratio at 2 h, 3 μM is 0.2.

Regarding `CNC(=O)c1nnc(N2CCN(C3CC3)C2=O)cc1Nc1cccc(-c2cnn(C)n2)c1OC` [Example 5, 6-(3-cyclopropyl-2-oxoimidazolidin-1-yl)-4-{[2-methoxy-3-(2-methyl-2H-1,2,3-triazol-4-yl)phenyl]amino}-N-(^2H3)methylpyridazine-3-carboxamide], in data set [2], the half-maximal inhibitory concentration (IC50) came to 95 nM.

As for `[2H]C([2H])([2H])NC(=O)c1nnc(N2CCN(C3CC3)C2=O)cc1Nc1nccc(-c2cnn(C)n2)c1OC` [Example 4, 6-(3-cyclopropyl-2-oxoimidazolidin-1-yl)-4-{[3-methoxy-4-(2-methyl-2H-1,2,3-triazol-4-yl)pyridin-2-yl]amino}-N-(^2H3)methylpyridazine-3-carboxamide], the “Caco-2 AB” value with Caco-2 cells [1] stood at 576 nm/s.

As to `CNC(=O)c1nnc(N2CCN(C3CC3)C2=O)cc1Nc1nccc(-c2cnn(C)n2)c1OC` [Example 4, 6-(3-cyclopropyl-2-oxoimidazolidin-1-yl)-4-{[3-methoxy-4-(2-methyl-2H-1,2,3-triazol-4-yl)pyridin-2-yl]amino}-N-(^2H3)methylpyridazine-3-carboxamide], the half-inhibitory concentration (IC50) in data set [2] is 26 nM.

`CNC(=O)c1cnc(N2CCN(C(F)(F)F)C2=O)cc1Nc1cccc(-c2cnn(C)n2)c1OC` [Example 6, 4-{[2-methoxy-3-(2-methyl-2H-1,2,3-triazol-4-yl)phenyl]amino}-N-(^2H3)methyl-6-[2-oxo-3-(trifluoromethyl)imidazolidin-1-yl]pyridine-3-carboxamide]: the IC50 in data set [2] amounted to 800 nM.

On to `[2H]C([2H])([2H])NC(=O)c1nnc(N2CCN(C3CC3)C2=O)cc1Nc1cccc(-c2cnn(C)n2)c1OC` [Example 5, 6-(3-cyclopropyl-2-oxoimidazolidin-1-yl)-4-{[2-methoxy-3-(2-methyl-2H-1,2,3-triazol-4-yl)phenyl]amino}-N-(^2H3)methylpyridazine-3-carboxamide], for which the “Caco-2 AB” value in the data set with Caco-2 cells [1] was determined as 361 nm/s.

As to `[2H]C([2H])([2H])NC(=O)c1cnc(N2CCN(C(C)C)C2=O)cc1Nc1nccc(-c2cnn(C)n2)c1OC` [Example 2, 4-{[3-methoxy-4-(2-methyl-2H-1,2,3-triazol-4-yl)pyridin-2-yl]amino}-N-(^2H3)methyl-6-[2-oxo-3-(propan-2-yl)imidazolidin-1-yl]pyridine-3-carboxamide], in the data set on Caco-2 cells [3], the Caco-2 efflux ratio is 1.4 and the “Caco-2 AB” value was found to be 233 nm/s.

Take `CNC(=O)c1nnc(N2CCN(C3CCC3)C2=O)cc1Nc1nccc(-c2cnn(C)n2)c1OC` [Example 7, 6-(3-cyclobutyl-2-oxoimidazolidin-1-yl)-4-{[3-methoxy-4-(2-methyl-2H-1,2,3-triazol-4-yl)pyridin-2-yl]amino}-N-(^2H3)methylpyridazine-3-carboxamide]: the 50% inhibitory concentration (IC50) in data set [2] stood at 47 nM.

Turning to `[2H]C([2H])([2H])NC(=O)c1cnc(N2CCN(C(C)C)C2=O)cc1Nc1cccc(-c2cnn(C)n2)c1OC` [Example 3, 4-{[2-methoxy-3-(2-methyl-2H-1,2,3-triazol-4-yl)phenyl]amino}-N-(^2H3)methyl-6-[2-oxo-3-(propan-2-yl)imidazolidin-1-yl]pyridine-3-carboxamide], in the data set on Caco-2 cells [3], the Caco-2 efflux ratio was 0.7 and the “Caco-2 AB” value amounted to 287 nm/s.

As to `[2H]C([2H])([2H])NC(=O)c1nnc(N2CCN(C(C)C)C2=O)cc1Nc1nc(C)cc(-c2cnn(C)n2)c1OC` [Example 8, 6-(3-isopropyl-2-oxoimidazolidin-1-yl)-4-((3-methoxy-6-methyl-4-(2-methyl-2H-1,2,3-triazol-4-yl)pyridin-2-yl)amino)-N-(methyl-d3)pyridazine-3-carboxamide], the IC50 in data set [2] was found to be 383 nM. In addition, in the data set “in vitro”, the Papp A→B at 2 h, 3 μM turned out to be 15.4 ×10⁻⁶ cm/s and the efflux ratio at 2 h, 3 μM stood at 0.3.

For `CNC(=O)c1cnc(N2CCN(C(C)C)C2=O)cc1Nc1nccc(-c2cnn(C)n2)c1OC` [Example 2, 4-{[3-methoxy-4-(2-methyl-2H-1,2,3-triazol-4-yl)pyridin-2-yl]amino}-N-(^2H3)methyl-6-[2-oxo-3-(propan-2-yl)imidazolidin-1-yl]pyridine-3-carboxamide], the IC50 in data set [2] worked out at 26 nM.
